# Assay results as given in PubChem BioAssay AID256 (DTP/NCI, 2004).
# Several values for one entry are separate records, joined by “and”; a condition that tells them apart may be missing. Equal entries are not always repeated. Inconclusive results and toxic doses are left out.
# System: CD2F1 mice, L1210 leukemia ip, survival T/C
# Assay: NCI In Vivo Anticancer Drug Screen. Data for tumor model L1210 Leukemia (intraperitoneal) in CD2F1 (CDF1) mice
# Details: higher = longer survival
# How it was run: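 Ratio T/C, where T is the treated-group value and C the vehicle-dosed control value, from mice implanted with a transplantable tumor.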
# [1] = endpoint: mean survival time, dose: 100.0 mg/kg/injection, schedule: Q01DX001 (ip), vehicle: saline with Tween-80
# [2] = endpoint: mean survival time, dose: 200.0 mg/kg/injection, schedule: Q01DX001 (ip), vehicle: saline with Tween-80
# [3] = endpoint: mean survival time, dose: 100.0 mg/kg/injection, schedule: Q04DX003 (ip), vehicle: saline with Tween-80
# [4] = endpoint: mean survival time, dose: 200.0 mg/kg/injection, schedule: Q04DX003 (ip), vehicle: saline with Tween-80
# [5] = endpoint: mean survival time, dose: 400.0 mg/kg/injection, schedule: Q04DX003 (ip), vehicle: saline with Tween-80
# [6] = endpoint: mean survival time, dose: 100.0 mg/kg/injection, schedule: Q01DX009 (ip), vehicle: saline with Tween-80
# [7] = endpoint: mean survival time, dose: 200.0 mg/kg/injection, schedule: Q01DX009 (ip), vehicle: saline with Tween-80
# [8] = endpoint: mean survival time, dose: 400.0 mg/kg/injection, schedule: Q01DX009 (ip), vehicle: saline with Tween-80
# [9] = endpoint: mean survival time, dose: 50.0 mg/kg/injection, schedule: Q01DX009 (ip), vehicle: saline with Tween-80
compound,measurement,setting,value
C1N2CN3CN1CN(C2)C3.[Cl][Pt+2][Cl],T/C,"endpoint: mean survival time, dose: 18.75 mg/kg/injection, schedule: Q04DX003 (ip), vehicle: saline",103 % of control
same,T/C,"endpoint: mean survival time, dose: 37.5 mg/kg/injection, schedule: Q04DX003 (ip), vehicle: saline",106 % of control
same,T/C,"endpoint: mean survival time, dose: 75.0 mg/kg/injection, schedule: Q04DX003 (ip), vehicle: saline",101 % of control
same,T/C,"endpoint: mean survival time, dose: 150.0 mg/kg/injection, schedule: Q04DX003 (ip), vehicle: saline",107 % of control
same,T/C,"endpoint: mean survival time, dose: 300.0 mg/kg/injection, schedule: Q04DX003 (ip), vehicle: saline",103 % of control
COC1=C(c2ccccc2)/C(=C/c2ccccc2)OC1=O,T/C,[1],104 % of control
same,T/C,[2],96 % of control
same,T/C,"endpoint: mean survival time, dose: 400.0 mg/kg/injection, schedule: Q01DX001 (ip), vehicle: saline with Tween-80",93 % of control
CCCOc1ccc(/C=N\N=C\c2ccc(OCCC)cc2)cc1,T/C,[3],89 % of control
same,T/C,[4],89 % of control
same,T/C,[5],91 % of control
COc1ccc(O)cc1,T/C,"endpoint: median survival time, dose: 12.5 mg/kg/injection, schedule: Q01DX005 (ip), vehicle: saline with Tween-80",98 % of control
same,T/C,"endpoint: median survival time, dose: 25.0 mg/kg/injection, schedule: Q01DX005 (ip), vehicle: saline with Tween-80",98 % of control
same,T/C,"endpoint: median survival time, dose: 50.0 mg/kg/injection, schedule: Q01DX005 (ip), vehicle: saline with Tween-80",95 % of control
same,T/C,"endpoint: median survival time, dose: 100.0 mg/kg/injection, schedule: Q01DX005 (ip), vehicle: saline with Tween-80",103 % of control
same,T/C,"endpoint: median survival time, dose: 200.0 mg/kg/injection, schedule: Q01DX005 (ip), vehicle: saline with Tween-80",116 % of control
CN(C)C(=O)c1cccc(COc2ccc(N)cc2Cl)c1,T/C,"endpoint: mean survival time, dose: 50.0 mg/kg/injection, schedule: Q01DX009 (ip), vehicle: saline",113 % of control
same,T/C,[6],90 % of control
same,T/C,"endpoint: mean survival time, dose: 100.0 mg/kg/injection, schedule: Q01DX009 (ip), vehicle: saline",104 % of control
same,T/C,[7],93 % of control
same,T/C,"endpoint: mean survival time, dose: 200.0 mg/kg/injection, schedule: Q01DX009 (ip), vehicle: saline",105 % of control
same,T/C,[4],87 % of control
same,T/C,[8],95 % of control
same,T/C,[5],89 % of control
CC(=O)OC(C)Cc1ccccc1 (configuration not stated),T/C,[9],96 % of control
same,T/C,[6],96 % of control
same,T/C,[7],100 % of control
C=CCC12CCCCC1=CC(=O)CC2 (configuration not stated),T/C,[3],97 % of control
same,T/C,[4],100 % of control
same,T/C,[5],102 % of control
O=C(O)c1ccccc1N(CCO)CCCl,T/C,"endpoint: mean survival time, dose: 3.13 mg/kg/injection, schedule: Q01DX009 (ip), vehicle: saline with Tween-80",121 % of control and 110 % of control
same,T/C,"endpoint: mean survival time, dose: 6.25 mg/kg/injection, schedule: Q01DX009 (ip), vehicle: saline with Tween-80",119 % of control
same,T/C,"endpoint: mean survival time, dose: 10.0 mg/kg/injection, schedule: Q01DX009 (ip), vehicle: Klucel (hydroxypropylcellulose) (HPC)",186 % of control
COc1ccc(F)cc1NC(=O)OC(C)C,T/C,[6],92 % of control
same,T/C,[7],96 % of control
same,T/C,[8],96 % of control
N#CN=C(N)NC(=O)c1ccccc1,T/C,[3],102 % of control
same,T/C,[4],98 % of control
CCCCN(C)CCNc1cc(C)nc(Nc2nc3ccc(Cl)cc3[nH]2)n1,T/C,"endpoint: mean survival time, dose: 16.5 mg/kg/injection, schedule: Q01DX009 (ip), vehicle: saline with Tween-80",88 % of control
same,T/C,"endpoint: mean survival time, dose: 25.0 mg/kg/injection, schedule: Q01DX009 (ip), vehicle: saline with Tween-80",97 % of control
same,T/C,"endpoint: mean survival time, dose: 37.5 mg/kg/injection, schedule: Q01DX009 (ip), vehicle: saline with Tween-80",95 % of control
same,T/C,[9],90 % of control
same,T/C,[1],90 % of control
same,T/C,[2],94 % of control
O=C(CCl)c1cc(Cl)c(O)c(Cl)c1,T/C,"endpoint: mean survival time, dose: 50.0 mg/kg/injection, schedule: Q01DX001 (ip), vehicle: carboxymethylcellulose (CMC)",97 % of control
O=C(O)/C=C\C(=O)Nc1ccc(Cl)cc1Cl,T/C,[6],103 % of control
same,T/C,[7],95 % of control
